{"source": "patent US20240092741A1", "about": "“COMPOSITION FOR PREVENTION OR TREATMENT OF NEUROFIBROMATOSIS TYPE 2 SYNDROME” (PRG S&TECH INC., priority 2021, published 2024)", "key": {"HEI-193 cells [1]": {"system": "HEI-193 cells", "assay": "Western blotting of marker proteins in HEI-193 cells", "format": "cell-based, human", "details": "HEI-193 cells pretreated 6 h with leptomycin B 2 ng/ml or MG132 5 μM, then 10 μM compounds 24 h (FIGS. 14F, 14G)", "protocol": "(§1) Cells were harvested and lysed using RIPA buffer [50 mM Tris-Cl, pH 7.5, 150 mM NaCl, 1% NP-40, 0.1% SDS, and 10% sodium deoxycholate] to examine cellular signaling. Protein concentrations in samples were measured using Bio-Rad (Hercules, CA, USA) protein assay kits and BSA standards. The samples (20 μg protein per lane) were separated by sodium dodecyl sulfate-polyacrylamide gel electrophoresis (SDS-PAGE), transferred to Immobilon-P^SQ transfer membranes (Millipore Corp., MA, USA), which were then cultured with 3% skim milk-containing TBS-T buffer (Tris-HCl-based buffer containing 20 mM Tris pH 7.6, 150 mM NaCl, and 0.05% Tween 20) for 1 hour at room temperature and then reacted with primary antibody in TBS-T overnight at 4° C. The membranes were then washed and reacted with secondary horseradish peroxidase (HRP)-conjugated antibodies [goat anti-mouse, goat anti-rabbit, and mouse anti-goat antibodies (Pierce, Thermo Fisher Scientific, Inc., Rockford, IL, USA)] in TBS-T at room temperature for 2 hours. The blots were detected using an HRP-conjugated secondary antibody using ECL kit (Intron, Seoul, Korea)."}, "RKIP": {"system": "RKIP", "assay": "RKIP expression by Western blotting in HEI-193 cells", "format": "cell-based, human", "details": "compounds 10 μM, 24 h (FIG. 1A) or 72 h (FIG. 2), Western blot", "protocol": "as §1\nBecause RKIP degradation in NF2 cells is clearly known (Mol Cancer Ther 17, 2271-2284, 2018), after first treating 260 novel synthetic compounds, RKIP expression was measured in HEI-193, a human NF2 cell line."}, "HEI-193 cells [2]": {"system": "HEI-193 cells", "assay": "MTT cell viability assay in HEI-193 cells", "format": "cell-based, human", "details": "10 μM, 48 h", "protocol": "(§2) To measure cell viability, MTT (3-(4,5-dimethylthiazol-2-yl)-2,5-diphenyltetrazolium bromide) assay was used. In other words, the cells were seeded in 96-well plates and treated with the indicated chemicals for a predetermined time. After removing the medium, 200 μl of MTT solution (0.5 mg/ml) dissolved in PBS was added to each well. Plates were then cultured at 37° C. for 4 hours, the MTT solution was removed, the precipitated substances were dissolved using a solution (DMSO:ethanol=1:1), and an amount of formazan dye produced was quantified by measuring the absorbance at 560 nm using an ELISA microplate reader (Thermo Fisher Scientific, MA, USA)."}, "normal fibroblasts": {"system": "normal fibroblasts", "assay": "MTT cell viability assay in normal fibroblasts", "format": "cell-based, human", "details": "10 μM, 48 h (FIG. 3)", "protocol": "as §2"}, "[3]": {"molecular_target": "T1, interaction between TβR1 and RKIP (Homo sapiens, UniProt P30086+P36897)", "T1 construct": "host or cells: HEK293 (TβR1 lysate)", "T1 sequence (P30086 whole entry)": "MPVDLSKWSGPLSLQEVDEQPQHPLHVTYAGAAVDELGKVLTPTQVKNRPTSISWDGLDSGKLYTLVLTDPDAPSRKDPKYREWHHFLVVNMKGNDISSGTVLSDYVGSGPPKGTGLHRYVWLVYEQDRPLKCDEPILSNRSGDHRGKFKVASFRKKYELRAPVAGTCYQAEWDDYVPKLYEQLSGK", "T1 sequence (P36897 34-503)": "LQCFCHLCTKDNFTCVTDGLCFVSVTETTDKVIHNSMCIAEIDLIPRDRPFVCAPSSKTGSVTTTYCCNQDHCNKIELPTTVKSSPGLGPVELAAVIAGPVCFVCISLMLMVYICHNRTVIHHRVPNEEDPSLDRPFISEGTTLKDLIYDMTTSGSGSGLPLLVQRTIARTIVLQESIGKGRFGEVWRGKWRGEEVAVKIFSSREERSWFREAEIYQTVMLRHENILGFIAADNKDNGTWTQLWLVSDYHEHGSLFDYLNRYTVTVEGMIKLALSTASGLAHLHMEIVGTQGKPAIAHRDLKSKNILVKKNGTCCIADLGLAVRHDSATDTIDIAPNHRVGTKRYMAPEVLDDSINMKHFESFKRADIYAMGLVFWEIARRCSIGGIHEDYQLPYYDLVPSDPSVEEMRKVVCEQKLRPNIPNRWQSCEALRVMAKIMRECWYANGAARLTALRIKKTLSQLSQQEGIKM", "assay": "GST-pull down assay of TβR1-RKIP interaction", "format": "binding", "details": "GST-RKIP beads with TβR1-transfected HEK293 lysates, 5 and 10 μM, 2 h (FIG. 5B)", "protocol": "For protein-protein interaction analysis, glutathione S-transferase (GST)-pull down assay was performed. For GST-pull down, agarose-bead-conjugated GST-RKIP recombinant protein was reacted with FLAG-tagged TβR1-transfected HEK 293 cell lysates in PBS buffer at 4° C. for 1 hour. Immunoprecipitation (IP) assay was performed by reacting with FLAG-tagged TβR1- or HA-tagged RKIP-transfected HEI-193 cell lysates in PBS buffer. Whole lysates were reacted with appropriate primary antibodies at 4° C. for 2 hours and with agarose-bead-conjugated protein A/G (Invitrogen, Carlsbad, CA, USA) for 2 hours. After centrifugation, the precipitates were washed twice with RIPA buffer and subjected to SDS-PAGE and western blotting analysis."}, "mouse schwannoma cells [4]": {"system": "mouse schwannoma cells", "assay": "MTT cell viability assay in mouse schwannoma cells", "format": "cell-based", "details": "mouse schwannoma (NF2 mouse) cells, 10 μM, 48 h", "protocol": "as §2"}, "TGF-β signaling": {"system": "TGF-β signaling", "assay": "Smad2/3 phosphorylation after TGF-β1 in HEI-193 cells", "format": "cell-based, human", "details": "10 μM, TGF-β1 2 ng/ml added after 12 h for 12 h (FIG. 5D)", "protocol": "as §1"}, "HEI-193 cells [5]": {"system": "HEI-193 cells", "assay": "Tumorsphere formation assay, HEI-193 cells", "format": "cell-based, human", "details": "HEI-193 cells, 10 μM, DMEM/F12 medium", "protocol": "(§3) For tumorsphere formation assay, Hei-193 or mouse schwannoma cells (3×10^6 cells/plate) were cultured in DMEM/F12 medium (supplemented with 2% B27 and 40 ng/ml bFGF) and added with the indicated chemicals on non-coated plates for indicated days."}, "mouse schwannoma cells [6]": {"system": "mouse schwannoma cells", "assay": "Tumorsphere formation assay, mouse schwannoma cells", "format": "cell-based", "details": "10 μM, DMEM/F12 medium", "protocol": "as §3"}, "SOX2": {"system": "SOX2", "assay": "SOX2 localization by IF and cell fractionation in HEI-193 cells", "format": "cell-based, human", "details": "2 μM, 24 h, IF and cell fractionation (FIGS. 15C, 15D)", "protocol": "Cells were seeded on cover glass, washed with PBS, fixed with 4% paraformaldehyde (PFA) for 30 minutes at room temperature, and then permeabilized with 0.2% Triton X-100 at room temperature for 5 minutes. After treatment with blocking buffer [3% goat serum diluted in PBS] for 1 hour, cells were reacted with the specified antibody in the blocking buffer overnight at 4° C. Finally, the cells were reacted with secondary antibodies conjugated with FITC or rhodamine at 4° C. for 7 hours. The nuclei were stained with DAPI at room temperature for 10 minutes. After the cells were washed 3 times with PBS, the cover glass was mounted with a mounting solution (H-5501, Vector Laboratories, Cambridgeshire, UK) and immunofluorescence signals were detected using a fluorescence microscopy (Zeiss, Jena, Germany)."}, "schwannoma": {"system": "schwannoma", "details": "Mol Cancer Ther 17, 2271-2284, 2018; cited from earlier work"}}, "note": "Peptide text beside a SMILES is read from it. * marks the point of attachment. Cbz = O=C(OCc1ccccc1)*"}
{"smiles": "CC(C)C[C@@H](C=O)NC(=O)[C@H](CC(C)C)NC(=O)[C@H](CC(C)C)NC(=O)OCc1ccccc1", "note": "[MG312, reference compound] (Cbz-Leu-Leu-Leu-aldehyde)", "values": [{"measurement": "PRG-N-01/TEW7197-induced reduction in SOX2", "setting": "HEI-193 cells [1]", "value": "blocked"}]}
{"smiles": "CCN(CC)CCOc1ccc(-c2nnn(Cc3ccc(OCc4ccccc4)cc3)c2NC(=O)OC(C)(C)C)cc1", "note": "[NF-08001]", "values": [{"measurement": "RKIP expression", "setting": "RKIP", "value": "induction of RKIP"}, {"measurement": "cell viability (MTT)", "setting": "HEI-193 cells [2]", "value": "anti-proliferating effect"}, {"measurement": "cytotoxicity in normal cells (MTT)", "setting": "normal fibroblasts", "value": "exhibited normal cytotoxicity"}, {"measurement": "interaction between TβR1 and RKIP", "setting": "[3]", "value": "inhibitory effect"}]}
{"smiles": "Cc1cccc(-c2[nH]c(CNc3ccccc3F)nc2-c2ccc3ncnn3c2)n1", "note": "[TEW7197, N-((4-([1,2,4]triazolo[1,5-a]pyridin-6-yl)-5-(6-methylpyridin-2-yl)-1H-imidazol-2-yl)methyl)-2-fluoroaniline, reference compound]", "values": [{"measurement": "cell viability (MTT)", "setting": "HEI-193 cells [2]", "value": "suppressed cell viability"}, {"measurement": "cell viability (MTT)", "setting": "mouse schwannoma cells [4]", "value": "suppressed cell viability"}, {"measurement": "Smad2/3 phosphorylation in response to TGF-β", "setting": "TGF-β signaling", "value": "TGF-β signal inhibition"}, {"measurement": "tumorsphere formation", "setting": "HEI-193 cells [5]", "value": "weak inhibitory effect"}, {"measurement": "tumorsphere formation", "setting": "mouse schwannoma cells [6]", "value": "weak inhibitory effect"}, {"measurement": "localization of nuclear SOX2", "setting": "SOX2", "value": "moved to the cytosol"}, {"measurement": "schwannoma in a mouse model with NF2 syndrome", "setting": "schwannoma", "value": "inhibited schwannoma"}]}
{"smiles": "CCC(=C/[C@H](C)C/C=C/C(C)=C/[C@@H](C)C(=O)[C@@H](C)[C@H](O)[C@@H](C)C/C(C)=C/C(=O)O)/C=C/[C@@H]1OC(=O)C=C[C@@H]1C", "note": "[leptomycin B, reference compound]", "values": [{"measurement": "PRG-N-01/TEW7197-induced reduction in SOX2", "setting": "HEI-193 cells [1]", "value": "blocked"}]}
